Measurements published in PMC9776381, “A Large-Scale High-Throughput Screen for Modulators of SERCA Activity” (Biomolecules, 2022).

Experiments:
[1] = biological target: T1, SERCA1a (rabbit light skeletal SR vesicles) (Oryctolagus cuniculus, UniProt P04191); assay: NADH-coupled Ca-ATPase activity assay, skeletal SR (CRC at pCa 5.4); assay type: biochemical; settings: n = 3; for Skeletal SR ATPase Activity Percent Increase: maximal effect of CRC 0.05 to 50 µM, pCa 5.4, relative to DMSO, mean ± SD; for EC50: pCa 5.4, mean ± SD
T1 construct: rabbit muscles were freshly harvested from the back and hind leg of New Zealand White rabbits and purified using a sucrose gradient; from tissue; host or cells: rabbit (New Zealand White) back and hind leg skeletal muscle, light SR vesicles
T1 sequence (P04191 1-994 isoform P04191-2): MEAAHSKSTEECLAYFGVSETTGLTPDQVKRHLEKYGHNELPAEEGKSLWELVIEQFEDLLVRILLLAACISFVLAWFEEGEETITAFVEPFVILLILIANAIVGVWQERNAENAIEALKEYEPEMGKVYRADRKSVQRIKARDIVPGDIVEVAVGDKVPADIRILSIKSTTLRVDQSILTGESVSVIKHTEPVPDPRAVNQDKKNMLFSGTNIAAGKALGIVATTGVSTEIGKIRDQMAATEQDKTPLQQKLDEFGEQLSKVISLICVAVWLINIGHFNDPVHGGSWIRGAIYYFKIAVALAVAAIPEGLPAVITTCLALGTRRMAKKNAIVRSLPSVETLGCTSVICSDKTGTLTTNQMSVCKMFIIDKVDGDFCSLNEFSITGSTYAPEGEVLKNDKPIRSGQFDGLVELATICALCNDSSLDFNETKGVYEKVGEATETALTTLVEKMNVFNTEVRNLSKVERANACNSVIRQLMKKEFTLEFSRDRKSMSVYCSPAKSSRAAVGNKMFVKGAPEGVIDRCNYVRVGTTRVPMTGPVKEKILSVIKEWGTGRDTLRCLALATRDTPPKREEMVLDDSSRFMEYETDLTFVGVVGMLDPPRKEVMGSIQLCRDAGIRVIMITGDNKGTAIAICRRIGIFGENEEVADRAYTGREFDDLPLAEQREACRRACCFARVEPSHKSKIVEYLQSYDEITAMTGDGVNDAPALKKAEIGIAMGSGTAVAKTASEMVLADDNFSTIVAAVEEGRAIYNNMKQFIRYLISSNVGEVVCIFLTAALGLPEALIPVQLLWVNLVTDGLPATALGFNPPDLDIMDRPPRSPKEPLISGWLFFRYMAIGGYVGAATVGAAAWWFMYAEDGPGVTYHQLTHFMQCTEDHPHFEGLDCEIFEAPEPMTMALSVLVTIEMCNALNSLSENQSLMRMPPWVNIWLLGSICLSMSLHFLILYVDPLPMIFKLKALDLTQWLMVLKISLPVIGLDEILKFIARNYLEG
Description: (§1) For skeletal SR, rabbit muscles were freshly harvested from the back and hind leg of New Zealand White rabbits and purified using a sucrose gradient. The resulting light skeletal SR contains 80% SERCA, as a proportion of total protein content. Cardiac SR vesicles were isolated from fresh porcine left ventricular tissue.
(§2) Functional assays were performed using rabbit light skeletal sarcoplasmic (SR) vesicles. For high-throughput NADH-coupled screening, assay mix containing a final concentration of 50 mM MOPS (pH 7.0), 100 mM KCl, 1 mM EGTA, 0.2 mM NADH, 1 mM phosphoenol pyruvate, 10 IU/mL of pyruvate kinase, 10 IU/mL of lactate dehydrogenase, 1 µM of the calcium ionophore A23187, 4 µg/mL skeletal SR, and added CaCl2 to obtain pCa 5.4 was dispensed into 384-well DIVERSet assay plates containing 50 nL of compound or DMSO using a FlexDrop Precision liquid dispenser (Perkin Elmer, Waltham, Massachusetts). Plates were sealed, covered from light, and incubated at room temperature for 20 min. The assay was then started by dispensing MgATP (termed “initiation mix”), to a final concentration of 5 mM in each well (80 µL total assay volume) with the FlexDrop liquid dispenser (Perkin Elmer). The time dependence of absorbance was measured at 340 nm in a SpectraMax Plus384 microplate spectrophotometer (Molecular Devices, Sunnyvale, CA). For follow-up concentration response curves of Hit compounds, 400 nL of either compound or DMSO was dispensed into each well using an Echo liquid dispenser (Beckman Coulter). Testing dose-dependent compound effects on rabbit skeletal SR vesicles was done using the same method, as described above in 384-well plates. Determining compound effects on cardiac SR vesicles was done in a similar method as above, with the exception of 10 µg/mL of cardiac SR incubated in assay mix consisting of a final concentration of 50 mM MOPS (pH 7.0), 100 mM KCl, 1 mM EGTA, 1 µM of the calcium ionophore A23187, and added CaCl2 to the desired free calcium values. After a 20 min incubation, the “initiation mix”, containing a final concentration of 0.2 mM NADH, 1 mM phosphoenol pyruvate, 10 IU/mL of pyruvate kinase, 10 IU/mL of lactate dehydrogenase, and 5mM MgATP, was dispensed into each well.
The initial screen assay was performed with compounds at 10 µM. To better study the selected Hit compounds for their activation potential, we performed ATPase analyses (in triplicate) over a range of Hit concentrations (0.05 to 50 µM), generating concentration-response curves (CRCs) to determine maximal effects and EC50 (Figure 2). We used the same Ca^2+ concentration (pCa 5.4) as in the screening assays, thus focusing on the effects on the maximal velocity of SERCA. Two of the selected Hits yielded no response in follow-up assays, probably due to a mismatch in chemical composition between the library compound and the subsequently ordered compound (DS95401435 and DS41547941). This type of discrepancy is a typical hurdle in the screening process. Each of the other 19 compounds produced a substantial increase in ATPase activity, ranging from 30% to 72% (Table 1 and Supporting Information, Figure S1), as expected due to similarity of the CRC assay to the initial screen.

[2] = biological target: T2, SERCA2a (cardiac SR vesicles) (Sus scrofa, UniProt P11607); assay: Oxalate-supported Ca2+-uptake assay, cardiac SR (CRC at pCa 5.4); assay type: biochemical, porcine; settings: n = 3; for Cardiac SR Ca^2+ Uptake Activity Percent Increase: maximal effect of CRC; for Cardiac SR Ca^2+ Uptake Activity Percent Increase / EC50: pCa 5.4, mean ± SD, dash = no observable effect; for EC50: read-out: Cardiac SR Ca^2+ Uptake Activity EC50
T2 construct: Cardiac SR vesicles were isolated from fresh porcine left ventricular tissue; from tissue; host or cells: porcine left ventricular tissue, cardiac SR vesicles
T2 sequence (P11607 1-997 isoform P11607-2): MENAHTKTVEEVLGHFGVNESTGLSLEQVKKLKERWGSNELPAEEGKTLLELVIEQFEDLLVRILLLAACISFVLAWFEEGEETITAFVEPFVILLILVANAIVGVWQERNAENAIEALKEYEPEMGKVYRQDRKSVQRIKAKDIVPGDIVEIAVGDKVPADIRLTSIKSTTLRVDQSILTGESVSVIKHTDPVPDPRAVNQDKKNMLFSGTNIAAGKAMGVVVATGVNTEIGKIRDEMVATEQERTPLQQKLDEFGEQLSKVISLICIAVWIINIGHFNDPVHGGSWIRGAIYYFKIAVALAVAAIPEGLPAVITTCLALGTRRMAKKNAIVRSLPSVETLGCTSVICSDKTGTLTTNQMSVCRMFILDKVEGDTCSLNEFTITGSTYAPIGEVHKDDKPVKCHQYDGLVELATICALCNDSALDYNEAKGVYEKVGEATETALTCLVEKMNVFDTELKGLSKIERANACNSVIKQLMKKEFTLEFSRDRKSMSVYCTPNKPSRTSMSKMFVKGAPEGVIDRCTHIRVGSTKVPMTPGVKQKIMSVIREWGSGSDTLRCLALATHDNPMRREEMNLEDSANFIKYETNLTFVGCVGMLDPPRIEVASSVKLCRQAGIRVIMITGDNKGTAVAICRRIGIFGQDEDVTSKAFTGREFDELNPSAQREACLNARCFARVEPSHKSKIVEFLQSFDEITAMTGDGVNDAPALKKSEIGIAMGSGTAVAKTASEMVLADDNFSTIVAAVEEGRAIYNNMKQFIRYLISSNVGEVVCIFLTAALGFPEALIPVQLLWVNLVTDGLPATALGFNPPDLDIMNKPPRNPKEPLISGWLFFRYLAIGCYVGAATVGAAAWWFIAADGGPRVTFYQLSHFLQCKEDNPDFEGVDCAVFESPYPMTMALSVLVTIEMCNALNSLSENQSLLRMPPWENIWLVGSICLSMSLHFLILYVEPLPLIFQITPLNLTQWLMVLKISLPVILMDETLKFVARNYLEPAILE
Description: as §1
(§3) To determine compound effect on the Ca^2+-uptake activity of SERCA1a and SERCA2a, we used an oxalate-supported assay. A solution containing 50 mM MOPS (pH 7.0), 100 mM KCl, 30 mg/mL sucrose, 1 mM EGTA, 10 mM potassium oxalate, 2 µM Fluo-4, 30 µg/mL cardiac SR vesicles or 12 μg/mL skeletal SR vesicles, and CaCl2 calculated to reach the desired free [Ca^2+] was dispensed into 384-well black walled, transparent bottomed plates (Greiner Bio-One) containing the tested small molecule and incubated at 21 °C for 20 min while covered and protected from light. To start the reaction, MgATP was added to a final concentration of 5 mM, and the decrease in 485-nm excited fluorescence was monitored at 520 nm for 15 min using a FLIPR Tetra (Molecular Devices, San Jose, CA, USA).
To determine whether the observed increases in SERCA2a ATPase activity translate to Ca^2+ uptake function, we applied our Ca^2+ transport assay to test our selected Hit compounds in cardiac SR (Table 1). Indeed, 16 of the 19 compounds yielded a clear increase in Ca^2+ uptake activity. In fact, eight compounds generated an increase at least 50% greater in cardiac SR than in skeletal SR. Three compounds had either an inhibitory or no effect on Ca^2+ transport, and two of these were also non-activating compounds in skeletal SR.

[3] = biological target: T3, SERCA1a (skeletal SR vesicles) (Oryctolagus cuniculus, UniProt P04191); assay: Oxalate-supported Ca2+-uptake assay, skeletal SR (CRC at pCa 5.4); assay type: biochemical, rabbit; settings: for Skeletal SR Ca^2+ Uptake Activity Percent Increase: maximal effect of CRC; for Skeletal SR Ca^2+ Uptake Activity Percent Increase / EC50: pCa 5.4, mean ± SD, n = 3, dash = no observable effect; for EC50: read-out: Skeletal SR Ca^2+ Uptake Activity EC50
T3 construct: rabbit muscles were freshly harvested from the back and hind leg of New Zealand White rabbits and purified using a sucrose gradient; from tissue; host or cells: rabbit (New Zealand White) back and hind leg skeletal muscle, light SR vesicles
T3 sequence (P04191 1-994 isoform P04191-2): as the sequence (P04191 1-994 isoform P04191-2) above
Description: as §1, §3
While Ca^2+-dependent ATPase activity is a direct measure of SERCA activity, coupling of ATP hydrolysis to transport of Ca^2+ across the SR membrane is essential for the role of SERCA in cellular physiology. Therefore, we next asked whether our ATPase-based HTS assay could successfully identify compounds that also increase Ca^2+ uptake of SERCA.

[4] = biological target: T2, SERCA2a (cardiac SR vesicles); assay: NADH-coupled Ca-ATPase activity assay, cardiac SR (CRC at pCa 5.4); assay type: biochemical, porcine; settings: pCa 5.4, mean ± SD, n = 3; for Cardiac SR ATPase Activity Percent Increase: maximal effect of CRC
Description: as §1, §2
While initial screening was performed in skeletal SR enriched with the SERCA1a isoform, high sequence and structural homology with the cardiac SERCA2a isoform predicts a potential for cross reactivity of the Hit compounds. To test this hypothesis, we performed ATPase analyses with cardiac SR microsomes, which are enriched for SERCA2a.

| Compound | Skeletal SR ATPase Activity Percent Increase [1] [%] | EC50 [1] [µM] | Cardiac SR Ca^2+ Uptake Activity Percent Increase [2] [%] | EC50 [2] [µM] | Skeletal SR Ca^2+ Uptake Activity Percent Increase [3] [%] | EC50 [3] [µM] | Cardiac SR ATPase Activity Percent Increase [4] [%] | EC50 [4] [µM] | Compound classification from ATPase vs. Ca^2+ uptake CRCs, cardiac SR [2] | Ca^2+ uptake effect (in words), SR type not given ([3]; uncoupling compounds, cluster 5, tissue not stated) |
| --- | --- | --- | --- | --- | --- | --- | --- | --- | --- | --- |
| CCC(C)N(Cc1ccc(C)cc1)Cc1nccs1 (stereo not drawn) [Compound 1] | 50 ± 25 | 40 ± 21 | 32 ± 2 | 37 ± 4 | 27 ± 3 | 28 ± 9 | 42 ± 12 | 31 ± 10 | – | – |
| COc1cccc(-c2nn(-c3ccccc3)cc2CN(Cc2c(C)nn(C)c2C)C2CC2)c1 [Compound 18] | 39 ± 1 | 5.2 ± 0.3 | 12 ± 1 | 0.9 ± 0.2 | 8.9 ± 0.1 | 1.1 ± 0.3 | 37 ± 1 | 4.3 ± 0.3 | – | – |
| CCOC(=O)C1(CCCc2ccccc2)CCN(C(=O)CC2=CCCCC2)CC1 [Compound 7] | 41 ± 3 | 3.6 ± 0.4 | 24 ± 3 | 1.3 ± 0.4 | 14 ± 2 | 1.4 ± 0.4 | 51 ± 3 | 2.9 ± 0.3 | Linked Activating Compounds | – |
| CCOC(=O)C1(CCc2ccccc2)CCN(C(=O)c2occc2C)CC1 [Compound 9] | 72 ± 2 | 13.3 ± 0.7 | 33 ± 3 | 4 ± 0.8 | 31 ± 7 | 8 ± 5 | 85 ± 5 | 11 ± 1 | Linked Activating Compounds | – |
| C=C(C)COc1cccc(C(=O)NCCn2cccn2)c1 [Compound 15] | 30 ± 1 | 30 ± 12 | 6 ± 5 | 5 ± 11 | – | – | 46 ± 6 | 16 ± 3 | – | little to no Ca^2+ uptake effect |
| CCCCN(Cc1ccsc1)C(=O)c1occc1C [Compound 6] | 45 ± 8 | 24 ± 6 | 17 ± 1 | 3.8 ± 0.6 | 9 ± 1 | 4 ± 1 | 63 ± 17 | 29 ± 12 | – | – |
| CCCN(Cc1ccccc1OC)C(=O)c1cc(C)c(C)s1 [Compound 4] | 53 ± 2 | 5.4 ± 0.4 | 24 ± 1 | 1.6 ± 0.3 | 14 ± 2 | 1.4 ± 0.5 | 58 ± 4 | 4.8 ± 0.6 | – | – |
